Results published in patent US9492554B2, “Methods and compositions related to viral inhibition” (Clemson University Research Foundation (CURF), priority 2009, dated 2016).

What was measured:
TAR RNA = assay: UV melting of TAR RNA in presence of ligands (Tm, ΔTm); format: binding, HIV-1; conditions: Melting point stabilization of HIV-TAR RNA by Neo Neo dimers; Table 11
Protocol: The reactions were done in the presence of 10 mM sodium cacodylate, 0.5 mM EDTA, 0.1 mM MgCl2 pH 7.0. The heating rate was 0.3° C./min.
UV melting studies of TAR were performed in the presence and absence of various ligands (FIG. 13).

HIV-1 TAR RNA = HIV-1 TAR RNA competition FRET binding assay (Tat peptide probe); conditions: 100 nM TAR RNA, 100 nM Tat peptide, 25° C., 60 min
Protocol: Before used, HIV-1 TAR RNA (5′-GGC AGA UCUGAG CCU GGG AGC UCU CUG CC-3′, Thermo Scientific) in 10 μM batch in sterile water was heated to 95° C. for 4.5 min, and then cooled rapidly in ice bath for 5 min. This snap-cooling causes the RNA to adopt the kinetically favored hairpin rather than thermodynamically favored duplexes.
The relative affinity of each polyamine for HIV-1 TAR RNA was determined using Fluorescence Resonance Energy Transfer (FRET)-based competitive binding assay with a fluorescein-labeled HIV-1 Tat peptide as described in the literature. The fluorescence experiments were performed with a Spectra Max Fluorimeter (Molecular Devices) at 25° C., with excitation and emission wavelengths of 495 and 570 nm, respectively. All samples were prepared in 96 well plates in 1×TK buffer (50 mM Tris, 20 mM KCl, pH=7.4) with 0.1% Trixton-100 (Sigma).
To a solution of 100 nM HIV-1 TAR RNA and 100 nM fluorescein-labeled HIV-1 Tat peptide, appropriate concentrations (0 nM to 100 μM) of the antagonists were added at 25° C.; total volume of the incubation solution was 80 μL. After 60 min, fluorescence changes of the sample solution were determined by the Spectra Max Fluorimeter Detector.

Compound	ΔTm (TAR RNA) [°C]	IC50 (HIV-1 TAR RNA; Table 17) [µM]	IC50 (HIV-1 TAR RNA; Table 18) [µM]
NCC1O[C@H](OC2C(N)C[C@@H](N)C(O)[C@H]2O[C@@H]2O[C@H](Cn3cc(COCCCCCCCCOCc4cn(C[C@H]5O[C@@H](O[C@H]6C(O[C@H]7OC(CN)C(O)[C@H](O)C7N)C(N)C[C@@H](N)C6O)[C@@H](O)C5O[C@H]5O[C@@H](CN)C(O)C(O)C5N)nn4)nn3)C(O[C@H]3O[C@@H](CN)C(O)C(O)C3N)[C@@H]2O)C(N)[C@@H](O)C1O (stereo partly drawn) [DPA 58]	5.4	0.061 ± 0.013	–
NCC1O[C@H](OC2C(N)C[C@@H](N)C(O)[C@H]2O[C@@H]2O[C@H](Cn3cc(COCCCCCCCCCCCCOCc4cn(C[C@H]5O[C@@H](O[C@H]6C(O[C@H]7OC(CN)C(O)[C@H](O)C7N)C(N)C[C@@H](N)C6O)[C@@H](O)C5O[C@H]5O[C@@H](CN)C(O)C(O)C5N)nn4)nn3)C(O[C@H]3O[C@@H](CN)C(O)C(O)C3N)[C@@H]2O)C(N)[C@@H](O)C1O (stereo partly drawn) [DPA 60]	3.24	0.067 ± 0.009	–
NC[C@@H]1O[C@H](O[C@H]2[C@@H](O)[C@H](O[C@@H]3[C@@H](O)[C@H](N)C[C@H](N)[C@H]3O[C@H]3O[C@H](CO)[C@@H](O)[C@H](O)[C@H]3N)O[C@@H]2CO)[C@H](N)[C@@H](O)[C@@H]1O [DPA 502, paromomycin, reference compound]	–	–	11.4 ± 3.3
NC[C@H]1O[C@H](O[C@H]2[C@H](O)[C@@H](O[C@H]3O[C@H](CO)[C@@H](O)[C@H](N)[C@H]3O)[C@H](N)C[C@@H]2N)[C@H](O)[C@@H](O)[C@@H]1O [DPA 503, kanamycin, reference compound]	–	–	95.4 ± 20.4
CN[C@@H]1C[C@H](N)[C@@H](O)[C@H](OC2O[C@H](CO)[C@H](O)[C@@H]3OC4(O[C@H](C(N)CO)[C@H](O)[C@H](O)[C@H]4O)O[C@@H]23)[C@H]1O (stereo partly drawn) [DPA 504, hygromycin, reference compound]	–	–	> 500
lividomycin [DPA 507, reference compound]	–	–	92.5 ± 21.9
ribostamycin [DPA 508, reference compound]	–	–	146 ± 38
